Results as given in patent US7091218B1 (priority 1999, dated 2006).
Counter-ions that a name gives are not always drawn.

Experiments:
[1] = biological target: T1, acetylcholinesterase (Rattus norvegicus, UniProt P37136); assay: biochemical; conditions: rat brain homogenate as enzyme source; acetylthiocholine substrate, DTNB, absorbance at 412 nm
T1 construct: Using rat brain homogenate as a source of acetylcholinesterase; from tissue; host or cells: rat brain homogenate
T1 sequence (P37136 32-614): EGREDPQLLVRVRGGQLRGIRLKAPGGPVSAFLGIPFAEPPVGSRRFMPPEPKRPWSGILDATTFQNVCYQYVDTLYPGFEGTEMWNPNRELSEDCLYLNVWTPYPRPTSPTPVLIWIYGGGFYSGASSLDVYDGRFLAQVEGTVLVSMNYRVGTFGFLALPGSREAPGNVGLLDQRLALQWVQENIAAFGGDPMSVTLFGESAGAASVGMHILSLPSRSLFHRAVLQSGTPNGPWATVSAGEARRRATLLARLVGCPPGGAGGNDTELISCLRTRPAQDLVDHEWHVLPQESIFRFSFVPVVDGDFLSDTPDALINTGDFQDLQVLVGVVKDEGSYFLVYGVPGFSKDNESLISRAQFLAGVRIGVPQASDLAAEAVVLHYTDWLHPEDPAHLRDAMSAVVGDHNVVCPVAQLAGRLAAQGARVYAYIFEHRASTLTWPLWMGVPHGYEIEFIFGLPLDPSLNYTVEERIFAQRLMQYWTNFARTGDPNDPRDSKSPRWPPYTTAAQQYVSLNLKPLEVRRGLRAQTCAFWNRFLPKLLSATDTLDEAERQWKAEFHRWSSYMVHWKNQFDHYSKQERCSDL
Protocol: In Vitro Acetylcholinsterase Inhibitory Effect
Using rat brain homogenate as a source of acetylcholinesterase, esterase activity was assayed in accordance with the method of Ellman et al. ^1). That is, acetylthiocholin as a substrate, a test compound and DTNB (5,5′-dithiobis(2-nitrobenzoic acid)) were added to […] brain homogenate, and after incubation, the produced thiocholine was reacted with DTNB to produce a yellow product. This was measured as a change in absorbance at 412 nm to obtain acetylcholineesterase activity. The acetylcholineesterase inhibiting activity of each test compound was obtained as 50% inhibition concentration (IC50). Note that the test compounds were used after dissolving them in physiological saline. Ellman, G. L., Courtney, K. D., Andres, V. and Featherstone, R. M., (1961), Biochem. Pharmacol., 7, 88–95.

**Q.** Which melting point does the source give for `COc1cc2c(cc1OC)C(=O)C(CC1CCN(Cc3ccccc3)CC1)(N=[N+]=[N-])C2.Cl` (stereo not drawn) here?
**A.** The melting point was 153 to 154 °C.

**Q.** Which IC50 [1] does the source give for `COc1cc2c(cc1OC)C(=O)C(Cl)(CC1CCN(Cc3ccccc3)CC1)C2` (stereo not drawn) [Example 1, 1-Benzyl-4-[(5,6-dimethoxy-2-chloro-1-indanon)-2-yl]methylpiperidine hydrochloride] here?
**A.** The IC50 was 2 nM.

**Q.** Which IC50 [1] does the source give for `CCOc1cc2c(cc1OCC)C(=O)C(Cl)(CC1CCN(Cc3ccccc3)CC1)C2` (stereo not drawn) [Example 6, hydrochloride] here?
**A.** The IC50 was 2 nM.
